Key:
[1] = target: T1, His tagged recombinant human tissue transglutaminase (His6-rh-TG2) (Homo sapiens, UniProt P21980); assay: Inactivation of human tissue transglutaminase, fluorescence assay with Abz-APE(CAD-DNP)QEA-OH; format: biochemical; conditions: substrate Abz-APE(CAD-DNP)QEA-OH, 37° C., pH=7.5
T1 construct: purchased Zedira T002
T1 sequence (P21980 1-687): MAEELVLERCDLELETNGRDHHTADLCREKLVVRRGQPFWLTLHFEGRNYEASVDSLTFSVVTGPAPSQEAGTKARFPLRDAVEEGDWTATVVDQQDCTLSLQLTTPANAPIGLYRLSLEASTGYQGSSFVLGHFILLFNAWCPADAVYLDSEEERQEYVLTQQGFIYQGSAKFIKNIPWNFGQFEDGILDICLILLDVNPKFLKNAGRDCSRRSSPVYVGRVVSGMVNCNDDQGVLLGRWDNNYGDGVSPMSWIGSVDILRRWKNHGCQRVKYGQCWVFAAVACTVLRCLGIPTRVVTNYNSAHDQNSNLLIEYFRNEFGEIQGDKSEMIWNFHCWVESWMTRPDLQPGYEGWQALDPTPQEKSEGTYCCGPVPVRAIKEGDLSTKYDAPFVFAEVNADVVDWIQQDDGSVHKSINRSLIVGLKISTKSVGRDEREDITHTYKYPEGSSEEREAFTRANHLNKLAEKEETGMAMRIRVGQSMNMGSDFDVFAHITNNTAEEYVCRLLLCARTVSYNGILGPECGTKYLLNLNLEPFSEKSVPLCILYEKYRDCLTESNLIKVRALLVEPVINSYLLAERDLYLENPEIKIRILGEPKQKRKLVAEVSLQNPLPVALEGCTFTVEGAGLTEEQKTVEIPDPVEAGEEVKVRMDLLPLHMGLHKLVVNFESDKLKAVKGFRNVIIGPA
Outline: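 His6-rh-TG2 (10 μg per assay) was preincubated 5 min at 37 °C with inhibitor in Tris/CaCl2/PEG8000/DTT/glycine methyl ester assay solution (50 μM Abz-APE(CAD-DNP)QEA-OH), pH 7.5, DMSO <0.2%. Fluorescence (ex 313/em 418 nm) read over 15–30 min and activity taken from the slope. IC50 from activity vs log inhibitor concentration.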

[2] = tested on: CaCo2 (human colon carcinoma-cell line); assay: Cytotoxicity: metabolic activity, EZ4U-Assay, CaCo2; format: cell-based; conditions: CaCo2 cells; 48 hours after addition; inhibitors up to 1 mM (so in the source); cycloheximide 2.5 μg/ml, camptothecin 0.2 μg/ml
Protocol: (§1) Huh 7 (human hepatome-cell line) and CaCo2 (human colon carcinoma-cell line) were seeded to 96 well plates in Dulbecco's Modified Eagle's Medium (DMEM)/10% fetal calf serum (FCS) and cultivated. The method is known to the skilled person.
(§2) After one hour the inhibitors A63 (ZED1227), A29 (ZED1098) and A61 (ZED1219) were added in the concentrations 0.1 μM to 1 μM. The determination of the proliferation was carried out using the Cell Proliferation ELISA, BrdU (Roche 11 647 229 001): 24 hours after incubation of the cells with the inhibitor BrdU was added. The colorimetric development of the test was made after further 48 hours according to manufacturer's information. The extinction was measured at 450 nm. For determination of the metabolic activity using the EZ4U-Assay (Biomedica B1-5000) the tetrazolium substrate was added to the cells 48 hours after addition of the inhibitor. The capacity for reaction of the cells was measured every hour over a period of 4 hours at 450 nm against a reference filter of 630 nm. DMEM without inhibitor was added as reference in both experiments, as positive control cycloheximide (2.5 μg/ml) and camptothecin (0.2 μg/ml).

[3] = tested on: Huh 7 (human hepatome-cell line); assay: Cytotoxicity: metabolic activity, EZ4U-Assay, Huh 7; format: cell-based; conditions: Huh7 cells; 48 hours after addition; inhibitors up to 1 mM (so in the source); cycloheximide 2.5 μg/ml, camptothecin 0.2 μg/ml
Protocol: as §1
as §2, with “After one hour the inhibitors A63 (ZED1227), A29 (ZED1098) and A61 (ZED1219) were added in the concentrations 0.1 μM to 1 μM.” left out

[4] = tested on: CaCo2 (human colon carcinoma-cell line); assay: Cytotoxicity: proliferation, Cell Proliferation ELISA, BrdU, CaCo2; format: cell-based; conditions: CaCo2 cells; inhibitors up to highest measured concentration of 1 mM (so in the source); cycloheximide 2.5 μg/ml, camptothecin 0.2 μg/ml
Protocol: as §1
as §2, with “After one hour the inhibitors A63 (ZED1227), A29 (ZED1098) and A61 (ZED1219) were added in the concentrations 0.1 μM to 1 μM.” left out

[5] = tested on: Huh 7 (human hepatome-cell line); assay: Cytotoxicity: proliferation, Cell Proliferation ELISA, BrdU, Huh 7; format: cell-based; conditions: Huh7 cells; inhibitors up to highest measured concentration of 1 mM (so in the source); cycloheximide 2.5 μg/ml, camptothecin 0.2 μg/ml
Protocol: as §1
as §2, with “After one hour the inhibitors A63 (ZED1227), A29 (ZED1098) and A61 (ZED1219) were added in the concentrations 0.1 μM to 1 μM.” left out

| Structure (SMILES) | IC50 [1] [nM] | effect on metabolic activity (EZ4U) [2] | effect on metabolic activity (EZ4U) [3] | effect on proliferation (BrdU) [4] | effect on proliferation (BrdU) [5] |
| --- | --- | --- | --- | --- | --- |
| CCC(CC)CNC(=O)Cn1cccc(NC(=O)[C@H](CC/C=C/C(=O)OC)NC(=O)c2ccccc2N)c1=O [A70, (S,E)-Methyl 6-(2-aminobenzamido)-7-(1-(2-(2-ethylbutylamino)-2-oxoethyl)-2-oxo-1,2-dihydropyridin-3-ylamino)-7-oxohept-2-enoate 2,2,2-trifluoroacetate] | 81 |  |  |  |  |
| CCC(CC)CNC(=O)Cn1cccc(NC(=O)[C@H](CC/C=C/C(=O)OC)NC(=O)c2ccc3c(c2)C(=O)OC32c3ccc(N(C)C)cc3Oc3cc(N(C)C)ccc32)c1=O [A71, (S,E)-Methyl 6-(3′,6′-bis(dimethylamino)-3-oxo-3H-spiro[isobenzofuran-1,9′-xanthene]-5-ylcarboxamido)-7-(1-(2-(2-ethylbutylamino)-2-oxoethyl)-2-oxo-1,2-dihydropyridin-3-ylamino)-7-oxohept-2-enoate] | 97 |  |  |  |  |
| CCC(CC)CNC(=O)Cn1cccc(NC(=O)[C@@H](CC/C=C/C(=O)OC)NC(=O)c2cncn2C)c1=O [A76, (R,E)-Methyl 7-(1-(2-(2-ethylbutylamino)-2-oxoethyl)-2-oxo-1,2-dihydropyridin-3-ylamino)-6-(1-methyl-1H-imidazole-5-carboxamido)-7-oxohept-2-enoate] | 54700 |  |  |  |  |
| CC(=O)N[C@@H](CC/C=C/S(C)(=O)=O)C(=O)Nc1cccn(CC(=O)NCCC(C)C)c1=O [A77, (S,E)-2-acetamido-N-(1-(2-(isopentylamino)-2-oxoethyl)-2-oxo-1,2-dihydropyridin-3-yl)-6-(methylsulfonyl)hex-5-enamide] | 469 |  |  |  |  |
| CC(=O)N[C@@H](CC/C=C/C(=O)OCc1ccccc1)C(=O)Nc1cccn(CC(=O)NCCC(C)C)c1=O [A78, (S,E)-Benzyl 6-acetamido-7-(1-(2-(isopentylamino)-2-oxoethyl)-2-oxo-1,2-dihydropyridin-3-ylamino)-7-oxohept-2-enoate] | 627 |  |  |  |  |
| CC[C@@]1(O)C(=O)OCc2c1cc1n(c2=O)Cc2cc3ccccc3nc2-1 [camptothecin, reference compound] |  | significant reduction | significant reduction | significant reduction | significant reduction |
| C[C@@H]1C[C@@H]([C@H](O)CC2CC(=O)NC(=O)C2)C(=O)[C@@H](C)C1 [cycloheximide, reference compound] |  | significant reduction | significant reduction | significant reduction | significant reduction |

Reference: patent US9434763B2, “Derivatives of pyridinone as inhibitors for tissue transglutaminase” (ZEDIRA GMBH, priority 2012, dated 2016)
